# Reference: US20070128217A1 (priority 2003, published 2007)
# Key:
# [1] = tested on: antibodies in sera from SARS patients (sera 1a, 1b, 2, 6, 37, 62, London, SARS-yellow, SARS-green); type: binding, human; design: Binding of serum 6 to linear peptides of protein X1 of SARS-CoV Urbani / Binding of serum 37 to linear peptides of protein X1 of SARS-CoV Urbani / Binding of serum 6 to looped/cyclic peptide (PEPSCAN-ELISA) / Binding of serum 37 to looped/cyclic peptide (PEPSCAN-ELISA) / Binding of serum 37 to looped/cyclic peptides of protein X1 of SARS-CoV Urbani / Binding of serum 6 to linear peptides of protein X2 / Binding of serum 37 to linear peptides of protein X2 / Binding of serum 37 to looped/cyclic peptides of protein X2 of SARS-CoV Urbani / Binding of serum 6 to linear peptides of protein M of SARS-CoV Urbani / Binding of serum 37 to linear peptides of protein M of SARS-CoV Urbani / Binding of serum 6 to looped/cyclic peptides of protein M of SARS-CoV Urbani / Binding of serum 37 to looped/cyclic peptides of protein M of SARS-CoV Urbani / Binding of serum 6 to linear peptides of protein X3 of SARS-CoV Urbani / Binding of serum 37 to linear peptides of protein X3 of SARS-CoV Urbani / Binding of serum 37 to looped/cyclic peptides of protein X3 of SARS-CoV Urbani / Binding of serum 6 to linear peptides of protein X4 of SARS-CoV Urbani / Binding of serum 37 to linear peptides of protein X4 of SARS-CoV Urbani / Binding of serum 37 to looped/cyclic peptides of protein X4 of SARS-CoV Urbani / Binding of serum 6 to linear peptides of protein X5 of SARS-CoV Urbani / Binding of serum 37 to linear peptides of protein X5 of SARS-CoV Urbani / Binding of serum 37 to looped/cyclic peptides of protein X5 of SARS-CoV Urbani / Binding of serum 6 to linear peptides of protein N of SARS-CoV Urbani / Binding of serum 37 to linear peptides of protein N of SARS-CoV Urbani / Binding of serum 6 to linear peptide (PEPSCAN-ELISA) / Binding of serum 1a to looped/cyclic peptides of protein N of SARS-CoV Urbani / Binding of serum 1b to looped/cyclic peptides of protein N of SARS-CoV Urbani / Binding of serum 2 to looped/cyclic peptides of protein N of SARS-CoV Urbani / Binding of serum 6 to looped/cyclic peptides of protein N of SARS-CoV Urbani / Binding of serum 37 to looped/cyclic peptides of protein N of SARS-CoV Urbani / Binding of serum 62 to looped/cyclic peptides of protein N of SARS-CoV Urbani / Binding of serum London to looped/cyclic peptides of protein N of SARS-CoV Urbani / Binding of serum SARS-green to looped/cyclic peptides of protein N of SARS-CoV Urbani: unit not given here
# [2] = tested on: control sera (pooled serum of ten healthy LUMC hospital workers; commercial negative donor pooled serum from the Dutch bloodbank); type: binding, human; design: Binding of Control serum LUMC to linear peptides / Binding of Control serum Blood-bank to linear peptides / Binding of Control serum LUMC to looped peptides / Binding of Control Serum Blood-Bank to Looped peptides / Binding of Control serum LUMC to linear peptides of the protein M of SARS-CoV Urbani / Binding of Control serum Blood-bank to linear peptides of the protein M of SARS-CoV Urbani / Binding of Control serum LUMC to looped peptides of the protein M of SARS-CoV Urbani / Binding of Control Serum Blood-Bank to Looped peptides of the protein M of SARS-CoV Urbani: unit not given here
# [3] = tested on: rabbit serum obtained by immunizing a rabbit with the SARS-CoV strain Frankfurt 1; type: binding; design: Binding of a rabbit serum to linear peptides / Binding of a rabbit serum to looped peptides / Rabbit serum linear peptides / Rabbit serum looped peptides / Binding of a rabbit serum to linear peptides of protein N of SARS-CoV Urbani (Rabbit serum linear peptides) / Binding of a rabbit serum to looped/cyclic peptides of protein N of SARS-CoV Urbani (Rabbit serum looped peptides): unit not given here
sequence,measurement,setting,value
LPKEITVATSRTLSY,Binding of serum 1a to linear peptides of protein M of SARS-CoV Urbani,[1],0.7
same,Binding of serum 1a to looped/cyclic peptides of protein M of SARS-CoV Urbani,[1],0.6
same,Binding of serum 1b to linear peptides of protein M of SARS-CoV Urbani,[1],0.5
same,Binding of serum 1b to looped/cyclic peptides of protein M of SARS-CoV Urbani,[1],0.4
same,Binding of serum 2 to linear peptides of protein M of SARS-CoV Urbani,[1],0.6
same,Binding of serum 2 to looped/cyclic peptides of protein M of SARS-CoV Urbani,[1],0.6
same,Binding of serum 6 to linear peptides of protein M of SARS-CoV Urbani,[1],0.4
same,Binding of serum 6 to looped/cyclic peptides of protein M of SARS-CoV Urbani,[1],0.6
same,Binding of serum 37 to linear peptides of protein M of SARS-CoV Urbani,[1],0.4
same,Binding of serum 37 to looped/cyclic peptides of protein M of SARS-CoV Urbani,[1],0.6
same,Binding of serum 62 to linear peptides of protein M of SARS-CoV Urbani,[1],0.5
same,Binding of serum 62 to looped/cyclic peptides of protein M of SARS-CoV Urbani,[1],0.5
same,Binding of serum London to linear peptides of protein M of SARS-CoV Urbani,[1],0.3
same,Binding of serum London to looped/cyclic peptides of protein M of SARS-CoV Urbani,[1],0.2
same,Binding of serum SARS-green to linear peptides of protein M of SARS-CoV Urbani,[1],0.4
same,Binding of serum SARS-green to looped/cyclic peptides of protein M of SARS-CoV Urbani,[1],0.3
same,Binding of serum SARS-yellow to linear peptides of protein M of SARS-CoV Urbani,[1],0.2
same,Binding of serum SARS-yellow to looped/cyclic peptides of protein M of SARS-CoV Urbani,[1],0.5
same,Binding of Control Serum Blood-Bank to Looped peptides of the protein M of SARS-CoV Urbani,[2],0.6
same,Binding of Control serum Blood-bank to linear peptides of the protein M of SARS-CoV Urbani,[2],0.8
same,Binding of Control serum LUMC to linear peptides of the protein M of SARS-CoV Urbani,[2],0.7
same,Binding of Control serum LUMC to looped peptides of the protein M of SARS-CoV Urbani,[2],0.6
same,Rabbit serum linear peptides,[3],0.2
same,Rabbit serum looped peptides,[3],0.2
DYVVVHGYFTEVYYQ,Binding of serum 1a to linear peptides of protein X1 of SARS-CoV Urbani,[1],0.6
same,Binding of serum 1a to looped/cyclic peptides of protein X1 of SARS-CoV Urbani,[1],0.6
same,Binding of serum 1b to linear peptides of protein X1 of SARS-CoV Urbani,[1],0.5
same,Binding of serum 1b to looped/cyclic peptides of protein X1 of SARS-CoV Urbani,[1],0.5
same,Binding of serum 2 to linear peptides of protein X1 of SARS-CoV Urbani,[1],0.4
same,Binding of serum 2 to looped/cyclic peptides of protein X1 of SARS-CoV Urbani,[1],0.5
same,Binding of serum 6 to linear peptides of protein X1 of SARS-CoV Urbani,[1],0.4
same,Binding of serum 6 to looped/cyclic peptides of protein X1 of SARS-CoV Urbani,[1],0.3
same,Binding of serum 37 to linear peptides of protein X1 of SARS-CoV Urbani,[1],0.6
same,Binding of serum 37 to looped/cyclic peptides of protein X1 of SARS-CoV Urbani,[1],0.7
same,Binding of serum 62 to linear peptides of protein X1 of SARS-CoV Urbani,[1],0.4
same,Binding of serum 62 to looped/cyclic peptides of protein X1 of SARS-CoV Urbani,[1],0.7
same,Binding of serum London to linear peptides of protein X1 of SARS-CoV Urbani,[1],0.2
same,Binding of serum London to looped/cyclic peptides of protein X1 of SARS-CoV Urbani,[1],0.2
same,Binding of serum SARS-green to linear peptides of protein X1 of SARS-CoV Urbani,[1],0.3
same,Binding of serum SARS-green to looped/cyclic peptides of protein X1 of SARS-CoV Urbani,[1],0.3
same,Binding of serum SARS-yellow to linear peptides of protein X1 of SARS-CoV Urbani,[1],0.3
same,Binding of serum SARS-yellow to looped/cyclic peptides of protein X1 of SARS-CoV Urbani,[1],0.5
same,Binding of Control Serum Blood-Bank to Looped peptides,[2],0.5
same,Binding of Control serum Blood-bank to linear peptides,[2],0.5
same,Binding of Control serum LUMC to linear peptides,[2],0.7
same,Binding of Control serum LUMC to looped peptides,[2],0.7
same,Binding of a rabbit serum to linear peptides,[3],0.1
same,Binding of a rabbit serum to looped peptides,[3],0.6
LVVILRIGTQVLKTM,Binding of serum 1a to linear peptides of protein X2,[1],0.7
same,Binding of serum 1a to looped/cyclic peptides of protein X2 of SARS-CoV Urbani,[1],0.6
same,Binding of serum 1b to linear peptides of protein X2,[1],0.5
same,Binding of serum 1b to looped/cyclic peptides of protein X2 of SARS-CoV Urbani,[1],0.6
same,Binding of serum 2 to linear peptides of protein X2,[1],0.5
same,Binding of serum 2 to looped/cyclic peptides of protein X2 of SARS-CoV Urbani,[1],0.4
same,Binding of serum 6 to linear peptides of protein X2,[1],0.4
same,Binding of serum 6 to looped/cyclic peptides of protein X2 of SARS-CoV Urbani,[1],0.4
same,Binding of serum 37 to linear peptides of protein X2,[1],0.6
same,Binding of serum 37 to looped/cyclic peptides of protein X2 of SARS-CoV Urbani,[1],0.4
same,Binding of serum 62 to linear peptides of protein X2,[1],0.7
same,Binding of serum 62 to looped/cyclic peptides of protein X2 of SARS-CoV Urbani,[1],0.7
same,Binding of serum London to linear peptides of protein X2,[1],0.5
same,Binding of serum London to looped/cyclic peptides of protein X2 of SARS-CoV Urbani,[1],0.3
same,Binding of serum SARS-green to linear peptides of protein X2,[1],0.5
same,Binding of serum SARS-green to looped/cyclic peptides of protein X2 of SARS-CoV Urbani,[1],0.4
same,Binding of serum SARS-yellow to linear peptides of protein X2,[1],0.7
same,Binding of serum SARS-yellow to looped/cyclic peptides of protein X2 of SARS-CoV Urbani,[1],0.5
same,Binding of Control Serum Blood-Bank to Looped peptides,[2],0.8
same,Binding of Control serum Blood-bank to linear peptides,[2],0.7
same,Binding of Control serum LUMC to linear peptides,[2],0.7
same,Binding of Control serum LUMC to looped peptides,[2],0.6
same,Binding of a rabbit serum to linear peptides,[3],0.4
same,Binding of a rabbit serum to looped peptides,[3],0.6
